In patent US7767665B2, “1,3-benzothiazinone derivatives and use thereof” (Takeda Pharmaceutical Company Limited, priority 2001, dated 2010):
Counter-ions that a name gives are not always drawn.

SMILES | melting point
CN(CC(=O)OC(C)(C)C)c1cncc(-c2nc(=O)c3ccccc3s2)n1 [Example 291, tert-Butyl {methyl[6-(4-oxo-4H-1,3-benzothiazin-2-yl)-2-pyrazinyl]amino}acetate] | 189 to 190.5 °C
Cc1cc(C)c2sc(-c3cccc(CCCOCCC(=O)OC(C)(C)C)n3)nc(=O)c2c1 [Example 87] | 105.3 to 107.3 °C
CC(C)(C)OC(=O)CCc1cccc(-c2nc(=O)c3ccc(C(F)(F)F)cc3s2)n1 [Example 177, tert-Butyl 3-[6-(4-oxo-7-trifluoromethyl-4H-1,3-benzothiazin-2-yl)-2-pyridyl]propanoate] | 148.5 to 149.4 °C
CC(C)(C)OC(=O)CCc1ccnc(-c2nc(=O)c3ccc(Br)cc3s2)c1 [Example 187, tert-Butyl 3-[2-(7-bromo-4-oxo-4H-1,3-benzothiazin-2-yl)-4-pyridyl]propanoate] | 172.9 to 173.7 °C
CCNC(=O)NCCc1cccc(-c2nc(=O)c3ccccc3s2)n1 [Example 228, N-Ethyl-N′-[2-[6-(4-oxo-4H-1,3-benzothiazin-2-yl)-2-pyridyl]ethyl]urea] | 240.3 to 242.4 °C
CCCCOc1ccc2sc(-c3ccccn3)nc(=O)c2c1 [Example 116, 6-Butoxy-2-(2-pyridyl)-4H-1,3-benzothiazine-4-one] | 160.9 to 161.8 °C
O=c1nc(-c2cccc([S+]([O-])CCCc3ccccc3)n2)sc2ccccc12 (stereo not shown) [Example 165, 2-[6-[(3-Phenylpropyl)sulfinyl]-2-pyridyl]-4H-1,3-benzothiazine-4-one] | 164.5 to 165.5 °C
Cc1ccc(-c2nc(=O)c3ccccc3s2)n1C [Example 16, 2-(1,5-Dimethyl-1H-pyrrol-2-yl)-4H-1,3-benzothiazine-4-one] | 194.3 to 195.7 °C
CSCCC(=O)NCc1cccc(-c2nc(=O)c3ccccc3s2)n1 [Example 210, 3-(Methylthio)-N-[[6-(4-oxo-4H-1,3-benzothiazin-2-yl)-2-pyridyl]methyl]propanamide] | 191.6 to 192.8 °C
Cc1cccc2c(=O)nc(-c3cccc(C(=O)OC(C)(C)C)n3)sc12 [Example 232, tert-Butyl 6-(8-methyl-4-oxo-4H-1,3-benzothiazin-2-yl)-2-pyridinecarboxylate] | 204.3 to 204.7 °C
O=C(O)CN1CCN(c2ccnc(-c3nc(=O)c4ccccc4s3)c2)C1=O [Example 324, [2-Oxo-3-[2-(4-oxo-4H-1,3-benzothiazin-2-yl)-4-pyridyl]-1-imidazolidinyl]acetic acid] | 271 to 273 °C
O=c1nc(-c2ccco2)sc2ccccc12 [Example 1, 2-(2-Furyl)-4H-1,3-benzothiazine-4-one] | 170 to 171.5 °C
O=C(O)CCCCCOc1ccc2sc(-c3ccccn3)nc(=O)c2c1 [Example 125, 6-[[4-Oxo-2-(2-pyridyl)-4H-1,3-benzothiazin-6-yl]oxy]hexanoic acid] | 205.4 to 206.3 °C
O=c1nc(-c2ccc(N3CCCCC3)nc2)sc2ccccc12 [Example 34, 2-[6-(1-Piperidino)-3-pyridyl]-4H-1,3-benzothiazine-4-one] | 191.2 to 191.7 °C
CN(C)C(=O)NCCc1cccc(-c2nc(=O)c3ccccc3s2)n1 [Example 229, N,N-Dimethyl-N′-[2-[6-(4-oxo-4H-1,3-benzothiazin-2-yl)-2-pyridyl]ethyl]urea] | 190.2 to 191 °C
O=c1nc(-c2cccc(S(=O)(=O)Cc3ccccc3)n2)sc2ccccc12 [Example 161, 2-[6-(Benzylsulfonyl)-2-pyridyl]-4H-1,3-benzothiazine-4-one] | 217 to 218 °C

SMILES | melting point
CN(C(=O)OC(C)(C)C)c1cccc(-c2nc(=O)c3ccccc3s2)n1 [Example 108, tert-Butyl methyl[6-(4-oxo-4H-1,3-benzothiazin-2-yl)-2-pyridyl]carbamate] | 195.6 to 196.3 °C
CCOc1ccc(-c2nc(=O)c3ccccc3s2)cn1 [Example 91, 2-(6-Ethoxy-3-pyridyl)-4H-1,3-benzothiazine-4-one] | 152.3 to 156.2 °C
Cc1cc(CCC(=O)O)nc(-c2nc(=O)c3ccccc3s2)c1 [Example 191, 3-[4-Methyl-6-(4-oxo-4H-1,3-benzothiazin-2-yl)-2-pyridyl]propionic acid] | 244.6 to 245.5 °C
CC(C)(C)OC(=O)CS(=O)(=O)c1cccc(-c2nc(=O)c3ccccc3s2)n1 [Example 280, tert-Butyl {[6-(4-oxo-4H-1,3-benzothiazin-2-yl)-2-pyridyl]sulfonyl}acetate] | 159 to 160 °C
CCN(CC)C(=O)NCCc1cccc(-c2nc(=O)c3ccccc3s2)n1 [Example 230, N,N-Diethyl-N′-[2-[6-(4-oxo-4H-1,3-benzothiazin-2-yl)-2-pyridyl]ethyl]urea] | 174.9 to 175.6 °C
CC(C)(C)OC(=O)CCOCCCc1ccnc(-c2nc(=O)c3ccccc3s2)c1 [Example 101, tert-Butyl 3-[3-[2-(4-oxo-4H-1,3-benzothiazin-2-yl)-4-pyridyl]propoxy]propanoate] | 81.1 to 82.2 °C
CC(C)(C)OC(=O)N1CCCC1c1ccnc(-c2nc(=O)c3ccccc3s2)c1 (stereo not shown) [Example 352, tert-Butyl 2-[2-(4-oxo-4H-1,3-benzothiazin-2-yl)-4-pyridyl]-1-pyrrolidinecarboxylate] | 194.8 to 195.8 °C
COC(=O)CS(=O)(=O)Cc1cccc(-c2nc(=O)c3ccccc3s2)n1 [Example 260, Methyl ({[6-(4-oxo-4H-1,3-benzothiazin-2-yl)-2-pyridyl]methyl}sulfonyl)acetate] | 205 to 207 °C
O=c1nc(-c2cccc(N3CCCCC3)n2)sc2ccccc12 [Example 42, 2-[6-(1-Piperidyl)-2-pyridyl]-4H-1,3-benzothiazine-4-one] | 178.7 °C (dec.)
O=c1nc(-c2ccc(Sc3ccc(Cl)cc3)nc2)sc2ccccc12 [Example 36, 2-{6-[(4-Chlorophenyl)thio]-3-pyridyl}-4H-1,3-benzothiazine-4-one] | 221.5 to 222 °C
Cc1cc(CCC(=O)O)nc(-c2nc(=O)c3ccc(Cl)cc3s2)c1 [Example 192, 3-[6-(7-Chloro-4-oxo-4H-1,3-benzothiazin-2-yl)-4-methyl-2-pyridyl]propionic acid] | 232.2 to 233.2 °C
CC(C)(C)OC(=O)CSc1cccc(-c2nc(=O)c3ccccc3s2)n1 [Example 275, tert-Butyl {[6-(4-oxo-4H-1,3-benzothiazin-2-yl)-2-pyridyl]thio}acetate] | 169.5 to 170 °C
Cc1cccc2c(=O)nc(-c3cccc(CCC(=O)OC(C)(C)C)n3)sc12 [Example 338, tert-Butyl 3-[6-(8-methyl-4-oxo-4H-1,3-benzothiazin-2-yl)-2-pyridyl]propanoate] | 109.9 to 110 °C
O=c1nc(-c2c[nH]c3ccccc23)sc2ccccc12 [Example 172, 2-(1H-Indol-3-yl)-4H-1,3-benzothiazine-4-one] | 276.5 to 277 °C
NCCCCCCNC(=O)c1cccc(-c2nc(=O)c3ccccc3s2)n1 (as salt: hydrochloride) [Example 107, N-(6-Aminohexyl)-6-(4-oxo-4H-1,3-benzothiazin-2-yl)-2-pyridinecarboxamide hydrochloride] | 95.2 to 97.6 °C

The remaining lines, values ahead:

melting point | SMILES
198 to 198.8 °C | O=c1nc(-c2ccccn2)sc2ccc(OCc3ccccc3)cc12 [Example 121, 6-(Benzyloxy)-2-(2-pyridyl)-4H-1,3-benzothiazine-4-one]
263.7 to 264.2 °C | N#Cc1cccc(-c2nc(=O)c3ccccc3s2)n1 [Example 242, 6-(4-Oxo-4H-1,3-benzothiazin-2-yl)-s-pyridinecarbonitrile]
156.6 to 157 °C | N#CCCc1cccc(-c2nc(=O)c3ccccc3s2)n1 [Example 306, 3-[6-(4-Oxo-4H-1,3-benzothiazin-2-yl)-2-pyridyl]propionitrile]
230.7 to 232.2 °C | O=c1nc(-c2ccccn2)sc2cc(Br)ccc12 [Example 241, 7-Bromo-2-(2-pyridyl)-4H-1,3-benzothiazine-4-one]
150.8 to 151.3 °C | Cc1cccc2sc(-c3ccccn3)nc(=O)c12 [Example 17, 5-Methyl-2-(2-pyridyl)-4H-1,3-benzothiazine-4-one]
183 to 184.1 °C | CC(C)(C)OC(=O)COc1ccc2sc(-c3ccccn3)nc(=O)c2c1 [Example 122, tert-Butyl 2-[[4-oxo-2-(2-pyridyl)-4H-1,3-benzothiazin-6-yl]oxy]acetate]
260.5 to 260.8 °C | Cc1cccc2c(=O)nc(-c3cccc(C(=O)O)n3)sc12 [Example 233, 6-(8-Methyl-4-oxo-4H-1,3-benzothiazin-2-yl)-2-pyridinecarboxylic acid]
170 to 172.2 °C | CCOC(=O)c1cccc(-c2nc(=O)c3ccccc3s2)n1 [Example 26, Ethyl 6-(4-oxo-4H-1,3-benzothiazin-2-yl)-2-pyridinecarboxylate]
234.7 to 234.9 °C | O=c1nc(-c2ccccn2)sc2ncccc12 [Example 22, 2-(2-Pyridyl)-4H-pyrido[3,2-e][1,3]thiazine-4-one]
170 to 171 °C | CCS(=O)(=O)NCc1cccc(-c2nc(=O)c3ccccc3s2)n1 [Example 212, N-[[6-(4-Oxo-4H-1,3-benzothiazin-2-yl)-2-pyridyl]methyl]ethanesulfonamide]
214.1 to 214.6 °C | COc1ccnc(-c2nc(=O)c3ccccc3s2)c1 [Example 25, 2-(4-Methoxy-2-pyridyl)-4H-1,3-benzothiazine-4-one]
167.9 to 169.9 °C | CSc1ccc(-c2nc(=O)c3ccccc3s2)cn1 [Example 171, 2-[6-(Methylthio)-3-pyridyl]-4H-1,3-benzothiazine-4-one]
103.4 to 105.1 °C | CC(C)CCSc1cccc(-c2nc(=O)c3ccccc3s2)n1 [Example 130, 2-[6-(Isopentylthio)-2-pyridyl]-4H-1,3-benzothiazine-4-one]
253 to 254 °C | O=c1nc(-c2cccc(-n3cccn3)n2)sc2ccccc12 [Example 196, 2-[6-(1H-Pyrazol-1-yl)-2-pyridyl]-4H-1,3-benzothiazine-4-one]
59.5 to 61 °C | CC(C)CC[S+]([O-])c1cccc(-c2nc(=O)c3ccccc3s2)n1 (stereo not shown) [Example 157, 2-(6-Isoamylsulfinyl-2-pyridyl)-4H-1,3-benzothiazine-4-one]
